Entries after “also recorded” stand apart in the source; their conditions may differ. Ends that are not written are not given here.
Legend:
Format in all cases: cell-based, human
[1] = test system: H9 SIX1 H2B::GFP cells; test: LOPAC small-molecule screen for enhancers of placode fate and hit validation; details: for validation of primary hits: percentage of cells expressing SIX1: CP protocol, FIG. 6C, 13A/13B, 44A/44B; for expression of SIX1 relative to control differentiations (primary screen): LOPAC library, 1 μM and 10 μM, added day 3, read day 6
Procedure: (§1) H9 SIX1 H2B::GFP cells were differentiated into lens placode as described earlier and plated on 96 well plates coated with Matrigel. On day 3 (day before SIX1 H2B::GFP can be detected in individual cells) the medium was additionally supplemented with compounds from the LOPAC library. Two different concentrations (1 μM and 10 μM) per compound were used. Medium was not changed until day 6 of differentiation. On day 6 of differentiation plates were washed once with PBS and cells were fixed with 4% PFA. To increase the signal intensity over background, the cells were stained using an antibody against GFP. After labeling with an appropriate Alexa488-conjugated secondary antibody and the nuclear counterstain DAPI, cells were analyzed using the Meta Express software (Meta-morph) by calculating the percent nuclear GFP signal over DAPI positive cells.

[2] = test system: hPSC differentiated towards CP (SIX1); test: Phenanthroline in CP differentiation: marker expression and SIX1 positive cells; details: for SIX1 positive cells: CP protocol, FIG. 6E, Phenanthroline alone = absence of FGF2, control 18%
Procedure: (§2) All differentiations starting from E8 were dissociated into single cells using EDTA and re-plated at high density in E8 with the ROCK inhibitor (Tocris). Cells were typically seeded at a density of 200,000 cells/cm^2 on Matrigel coated dishes. Switching from E8 to E6 triggered differentiations (i.e. d0). Neuroectoderm (NE) formation was generated by culturing the cells in E6 with 10 μM SB and 500 nM LDN until d12. Neural Crest (NC) was first treated with 10 μM SB, 600 nM CHIR and 1 ng/ml BMP4 from d0-d2. At d3, cells were maintained in 10 μM SB with 1.5 uM CHIR until d12. Lens placode was first treated with 10 μM SB and 5 ng/ml BMP4 from d0-d2. At d3, cells were maintained in 10 μM SB with 50 ng/ml FGF2 until d12. Trigeminal placode was first treated with 10 μM SB and 5 ng/ml BMP4 from d0-d2. At d2, 600 nm CHIR was added. At d3, cells were treated with 10 μM SB and 600 nM CHIR. From d4-d12, cells were treated with 10 μM SB. Finally, non-neural ectoderm (NNE) was treated with 10 μM SB, 10 μM SU5402 and 10 ng/ml BMP4 from d0-d1, and then treated with 10 μM SB and 5 ng/ml BMP4 from d2-d12.
as §1

[3] = test system: hPSCs; test: Tolerability of small molecules during E6-based differentiation; details: had to be re-titrated
[4] = test system: hPSC-derived pituitary cells; test: Stimulation of hormone release in vitro (ELISA); details: day 30 cells, CRF 1 μM, Somatocrinin 1 μg/ml, vs solvent control; for ACTH release: Stressin I 2 μM, Urocortin 500 nM, Ghrelin 1 μM
Procedure: To stimulate hormone release in vitro, cells were differentiated in 24 well plates as described above. On day 30 of differentiation cells were washed once with PBS and 250 μl of fresh medium containing either the solvent or the stimulant were added to each well. After 12 h the supernatant was removed and centrifuged for 5 min at 2000 g to pellet debris. Supernatant was transferred into fresh reaction tubes, flash frozen and stored at −80° C. until ELISA measurements. Stimulants used were: CRF (Tocris, 1 μM), Stressin I (Tocris, 2 μM), Ghrelin (Tocris, 1 μM), Somatocrinin (Accurate Chemical, 1 μg/ml), Nafarelin (Tocris, 1 μM) and Urocortin (Tocris, 500 nM).
Hormone concentration in the supernatant of cells or in animal serum was analyzed using ELISA measurements. Hormone concentration in the cell culture supernatant was assessed using traditional single hormone ELISA Kits according to the manufactures manual. ACTH (Calbiotech, detects rat and human ACTH), hGH (R&D Systems, human specific), FSH (Calbiotech, FSH (lumELISA, human specific) and corticosterone (Abcam). Plates were read using an EnSpire Multimode plate reader (PerkinElmer). Hormone concentration in in vivo samples was analyzed using either traditional ELISA (for ACTH only, serum diluted 1:2) or species specific (human or rat) Milliplex multiplex ELISA using Luminex technology (Millipore). Magnetic bead-based sandwich immunoassay was performed according to the manufactures manual. 25 μl of undiluted serum samples in duplicate wells were analyzed by Luminex FlexMap 3D (Luminex Corp, Austin, Tex.). Cytokine concentrations were determined by Luminex Xponent 4.1 and EMD-Millipore Milliplex Analyst v5.1 using 5-p log analysis.

[5] = test system: hPSC (SIX1::H2B-GFP reporter); test: Cranial placode induction in E6 media, SIX1 positive cells
Procedure: as §2
Cranial Placode differentiation. Day 0 (0-24 hrs): Add E6 media containing 5 ng/ml BMP4+10 μM SB to cells.
Day 1 (24-48 hrs): Change media with E6 media containing 5 ng/ml BMP4+10 μM SB to cells.
Day 2 (48-72 hrs): Change media with E6 media containing 5 ng/ml BMP4+10 μM SB to cells. […]

[6] = test system: hPSCs (TFAP2A expression); test: BMP4 induction of TFAP2A and non-neural ectoderm in E6 media
Procedure: as §2, with “Finally, non-neural ectoderm (NNE) was treated with 10 μM SB, 10 μM SU5402 and 10 ng/ml BMP4 from d0-d1, and then treated with 10 μM SB and 5 ng/ml BMP4 from d2-d12.” left out
Human embryonic (H9, H1, HUES8, HUES6 and MEL1) and induced pluripotent stem cells (BJ1, MRC5 and SeV6) were adapted in the E8 media for a minimum of 4 passages (˜2 weeks) and induced to differentiate into the four ectodermal lineages. Bulk differentiations were dissociated using Accutase for 30 min at 37° C. at day 10 of differentiation and seeded in 96 well imaging plates. Cells were fixed two days later using 4% paraformaldehyde and permeabilized using 0.5% Triton-X and maintained in 0.2% Tween all diluted with PBS. Cells were then stained using antibodies against various markers indicative of the ectodermal lineages. Plates were scanned and measurements recorded using an IN Cell Analyzer 6000 (GE) and quantified using the Columbus image analysis software (PerkinElmer). Experiments involving these cell lines were biologically replicated (n=4) and technically replicated (n=2 per biological replicate).

[7] = test system: hPSC (SOX10::GFP reporter); test: Neural crest induction in E6 media, SOX10 positive cells
Procedure: as §2
Neural Crest differentiation. Day 0 (0-24 hrs): Add E6 media containing 1 ng/ml BMP4+10 μM SB+600 nM CHIR to cells.
Day 1 (24-48 hrs): Change media with E6 media containing 1 ng/ml BMP4+10 μM SB+600 nM CHIR to cells. […]

[8] = three-day pulse with SB431542 in E6

Molecule: CN1CCC(c2c[nH]c3ccc(O)cc23)CC1 [BRL-5443]
- validation of primary hits: percentage of cells expressing SIX1 [1]: increased the level of SIX1 expressing CP precursor cells
- validation of primary hits: percentage of cells expressing SIX1 ([1]; listed as BRL-54443): did not produce a significant difference
- expression of SIX1 relative to control differentiations (primary screen) [1]: increased expression of SIX1 above the levels observed in control differentiations

Molecule: c1cnc2c(c1)ccc1cccnc12 [Phenanthroline]
- validation of primary hits: percentage of cells expressing SIX1 [1]: confirmed to reliably enhance the percentage of cells expressing Six1; also recorded: confirmed to trigger a robust increase in the percentage of cells expressing SIX1; also recorded: large majority of cells
- expression of SIX1 relative to control differentiations (primary screen) [1]: increased expression of SIX1 above the levels observed in control differentiations
- SIX1 positive cells [2]: 69%
- fold increase of SIX1 positive cells versus control ([2]; absence of FGF2, 69% versus 18%): ~4 fold
- expression of other lineage markers (Sox10, T, MyoD, Sox17) ([2]; differentiation towards CP, FIG. 6D): without inducing the expression of other lineage markers

Molecule: Cc1c[nH]c(/C=C2\C(=O)Nc3ccccc32)c1CCC(=O)O [SU5402, 2-[(1,2-Dihydro-2-oxo-3H-indol-3-ylidene)methyl]-4-methyl-1H-pyrrole-3-pr-opanoic acid]
- cell killing at the original (KSR protocol) concentration [3]: effectively killed the cells

Molecule: CRF: stimulant of hormone release (Tocris, 1 μM) (SEEPPISLDLTFHLLREVLEMARAEQLAQQAHSNRKLMEII; ends and bridges not checked; UniProt P06850 154-194, looked up)
- ACTH release [4]: induced release of ACTH; also recorded: specifically induced
- GH release [4]: not

Molecule: FGF2: activator of FGF signaling
- SIX1 positive cells after addition of FGF agonist ([5]; E6 with SB431542 and BMP pulse, FIG. 2G/38B): ~50%
- SIX1 positive cells [2]: 34%

Molecule: Ghrelin: stimulant used (Tocris, 1 μM) (GSSFLSPEHQRVQQRKESKKPPAKLQPR; ends and bridges not checked; UniProt Q9UBU3 24-51, looked up)
- ACTH release [4]: did not trigger ACTH release and not

Molecule: Somatocrinin: stimulant of hormone release (Accurate Chemical, 1 μg/ml) (YADAIFTNSYRKVLGQLSARKLLQDIMSRQQGESNQERGARARL; ends and bridges not checked; UniProt P01286 32-75, looked up)
- ACTH release [4]: not
- ACTH release ([4]; listed as somatocrinin): did not trigger ACTH release
- GH release [4]: induced
- GH release ([4]; listed as somatocrinin): triggered robust increase in GH release

Molecule: Urocortin: stimulant of hormone release (Tocris, 500 nM) (DNPSLSIDLTFHLLRTLLELARTQSQRERAEQNRIIFDSV; ends and bridges not checked; UniProt P55089 83-122, looked up)
- ACTH release [4]: specifically induced
- ACTH release ([4]; listed as urocortin): induced release of ACTH

B1: BMP4: activator of BMP signaling (protein, UniProt P12644 293-408, looked up)
Bone morphogenetic protein 4: SPKHHSQRARKKNKNCRRHSLYVDFSDVGWNDWIVAPPGYQAFYCHGDCPFPLADHLNSTNHAIVQTLVNSVNSSIPKACCVPTELSAISMLYLDEYDKVVLKNYQEMVVEGCGCR
- BMP4 concentration optimal for CP induction (dose-response studies) [5, 8]: around 5 ng/ml
- NNE marker phenotype at high BMP4 concentration ([6]; 20 ng/ml): cells become TFAP2A+ and lack expression of SOX10 and SIX1; also recorded: derivation of TFAP2A+, PAX6−, SIX1−, and SOX10− NNE is achieved
- percentages of TFAP2A+ cells ([6]; with addition of BMP4, range across ESC/iPSC lines, 0%-5% without BMP4): 56%-95%
- TFAP2A expression ([6]; within 3 days of treatment, dose-dependent): rapidly upregulated
- SOX10 positive NC population ([7]; short pulse 1 ng/ml in combination with WNT activation): nearly homogenous SOX10 positive NC population; also recorded: nearly homogeneous SOX10+ NC population
- BMP4 concentration giving strong NC induction (dose-response studies) [7, 8]: around 1 ng/ml

Reference: patent US20200199530A1, “METHODS OF DIFFERENTIATING STEM CELL-DERIVED ECTODERMAL LINEAGE PRECURSORS” (MEMORIAL SLOAN-KETTERING CANCER CENTER, priority 2017, published 2020)
